# Measured values taken from PMC5317004 (Scientific Reports, 2017).
# What was measured:
# chimeric α7-GluClβR = assay: IVM pre-application before ACh, inhibition of ACh-elicited currents (whole-cell patch clamp); format: cell-based, chick nAChR α7 / C. elegans GluClβ
# Description: Data were extracted from experiments performed as in panel A. Since the currents could not be recovered following an exposure to IVM, each cell was exposed only to one concentration of IVM. […] The curve was fitted to the averaged data points with a non-linear regression using the Hill equation 2 (Eq. 2; r^2 = 0.996). Error bars correspond to SEM. Total of 41 cells were used to obtain the averaged points. Recordings were performed at −60 mV.
# Since the ACh-evoked response could not be recovered after exposure of the cell to IVM, we had to perform the above application protocol in different cells for each IVM concentration separately. By that, we obtained the inhibition graph shown in the inset of Fig. 3.
# In the case of inhibition of the current response, curves were fitted to the data points by a nonlinear regression using the Hill equation 2, […]
# Supplementary Information […]
# Supplementary Materials and Methods […]
# DNA construct and preparation of cells for electrophysiological experiments The cDNA encoding the α7-GluClβ chimeric subunit was generated as described previously3, and was cloned into a pcDNA3.1 vector.
# Chinese hamster ovary cells (CHO-K1, ATCC via Biological Industries Israel, Beit Haemek Ltd.) were cultured as performed previously2 in Dulbecco 's Modified E agle Med iu m (DMEM) containing 10% fetal calf serum (Biological Industries Israel Beit Haemek Ltd.), 2 mM glutamax, 100 Units/ml penicillin G and 100 μg/ml streptomycin, and grown in 5% CO2 at 37°C under 90-95% hu midity . CHO cells were seeded on glass coverslips (13-mm diameter) placed in a 24-multiwell plate. For the expression of the α7-GluClβR, cells were transiently transfected with the pcDNA3.1 plasmid containing the receptor’s ORF (200-600 ng per well) using transit-LT1 transfection reagent (Mirus, USA), according to the manufacturer’s protocol. pIRES-CD8 plas mid (200 ng per well) was also added to enable visualization of the ex pressing cells by beads coated with anti-CD8 antibodies (Invitrogen). […]
# Reagent (Roche Life Science). Recordings were performed 48-72 hours following transfection.
# Whole-cell patch clamp recordings
# Recordings were performed in the aforementioned CHO cells, as previously described1,2. Whole-cell patch clamp experiments were performed with normal external solution (NES) contained (in millimolar): 140 NaCl, 2.8 KCl, 2 CaCl2, 2 MgCl2, 10 glucose and 10 HEPES, adjusted to pH 7.35 with NaOH (310 mOsM). The pipette solution contained […]
# (in millimolar): 130 KCl, 4 MgCl2, 4 Na2ATP, 1 EGTA and 10 HEPES, adjusted to pH 7.35 with KOH (290 mOsM). The osmolarity of these solutions was maintained by adding sucrose.
# The electrode resistance was 6-10 MΩ when filled with the pipette solution. External solutions were applied onto the cell by using the VC-77SP fast-step system (Warner Instruments, CT, USA) combined with N2 pressure of 3-4 psi to produce laminar flow of the external solution onto the patched cell. All measurements were performed at 25 °C. The currents w ere measured with an Axopatch 200B patch-clamp amplifier (Molecular Devices, Sunnyvale, CA) and a Digidata 1440A interface (Molecular Devices). Acquisition of recording data was performed at 2.5 kHz and recordings were low-pass filtered at 1 kHz, through a four-pole Bessel filter.
# The pClamp 10 software (Molecular Devices) was used for data acquisition.
# To determine the chloride conductance and the reversal potential during current decline, the following procedure was employed. […]
# α7-nAChR = details: cited from earlier work
structure (smiles),measurement,setting,value
"CC[C@H](C)[C@H]1O[C@]2(CC[C@@H]1C)C[C@@H]1C[C@@H](C/C=C(\C)[C@@H](O[C@H]3C[C@H](OC)[C@@H](O[C@H]4C[C@H](OC)[C@@H](O)[C@H](C)O4)[C@H](C)O3)[C@@H](C)/C=C/C=C3\CO[C@@H]4[C@H](O)C(C)=C[C@@H](C(=O)O1)[C@]34O)O2 [IVM, Ivermectin]","ACh-elicited response after IVM pre-application, percent IP3/IP2","chimeric α7-GluClβR; 5 μM IVM for 10 sec, then 50 μM ACh 0.5 sec, relative to response after DMSO pre-application, N = 8",16 ± 5.2%
same,"ACh-elicited response after IVM and long-term wash, percent IP4/IP2","chimeric α7-GluClβR; 5 μM IVM for 10 sec, wash > 2 min, 50 μM ACh, N = 5",4.4 ± 1.3%
same,Hill coefficient (IVM inhibition curve),chimeric α7-GluClβR; IVM applied prior to 50 μM ACh,~3
same,IC50,"chimeric α7-GluClβR; IVM applied prior to 50 μM ACh, −60 mV, 41 cells",156 nM
same,Ki,"chimeric α7-GluClβR; IVM applied prior to activation by ACh, IC50 taken as Ki for non-competitive inhibition, read-out: inhibition constant (Ki)",156 nM
same,decrease of the ACh-EC50 by IVM,α7-nAChR,20 fold
